In US9855265B2, “Methods for treating cancer with TrkA receptor tyrosine kinase antagonists” (VM Oncology LLC, priority 2014, dated 2018):

Key:
[1] = system: AsPC-1 human pancreatic cancer cells; assay: Cell Viability and Proliferation Assay, AsPC-1; type: cell-based; settings: ASPC1, after 24 incubation
Method: (§1) Cell Viability and Proliferation Assays. To assess the chemosensitivity of tumor cells, cell viability is measured by CellTiter-Glo® Luminescent Cell Viability Assay (Promega; Wis., USA) per the manufacturer's instruction. Briefly, 5×10^3 to 7×10^5 cells/ml are cultured in sterile 96-well plates in the presence of increasing concentrations of the drugs (test article, 0 to 100 μM), or vehicle in RPMI medium. The plates are then incubated for 24 to 96 h, and then 100 μl of CellTiter-Glo reagent is added to lyse the cells. After a 10-min incubation at room temperature, the luminescence is recorded in a luminometer with an integration time of 1 s per well. The luminescence signals for the drug-treated cells are normalized by the luminescence signal obtained from vehicle-treated cells. As an alternative method to quantitate cell viability, the trypan blue exclusion dye method was used. Vehicle- or drug-treated cells were assayed by adding trypan blue solution (0.4% in phosphate-buffered saline [PBS]) to the culture medium. After 3 min, the number of dead cells that retained the dye is compared to the total number of cells to calculate cell viability. GraphPad Prism 5 software is used to calculate IC50 and plot effect-dose curve of drugs. Multiplate reader: EnVision 2104 (PerkinElmer). % of control variability=100*[(X(drug_treated)−L(baseline))/(H(vehicle_control)−L(baseline))]. […]

P38b/MAPK11 = P38b/MAPK11 (Homo sapiens, UniProt Q15759); assay: radiometric kinase assay, other kinases: P38b/MAPK11; type: biochemical; settings: duplicate
Method: (§2) Compound inhibition in a radiometric based mixed micelle assay: In a final reaction volume of 25 μL, TrkA (h) ([…]) is incubated with the kinase reaction buffer (20 mM HEPES (pH 7.5), 10 mM MgCl2, 1 mM EGTA, 0.02% Brij 35, 0.02 mg/ml BSA, 0.1 mM Na3VO4, 2 mM DTT, 1% DMSO), 0.2 mg/ml substrate PolyEY(4:1) and […], and [^33P-ATP](specific activity approx. 500 cpm/pmol, concentration as required). The reaction is initiated by the addition of the MgATP mix. After incubation for at least 40 minutes at room temperature, the reaction is stopped by the addition of 5 μL of a 3% phosphoric acid solution. 10 μL of the reaction is then spotted onto a P30 filtermat and washed three times for 5 minutes in 75 mM phosphoric acid and once in methanol prior to drying and scintillation counting. TrkA: Recombinant Human Cytoplasmic Domain (amino acids 441-796), Histidine-tagged, expressed in insect cells. Activated in vitro via auto-phosphorylation. Mw=42.8 kDa. Substrates for kinases: poly(EY) for TRKA; poly(EY)(4:1) with 2 mM MnCl2, average Mw=16 kDa Standard conditions (unless otherwise specified): 30 nM TRKA, 0.2 mg/ml poly(EY)+2 mM MnCl2, and 10 μM ([γ-^33P]) ATP. Using the similar assay condition with other kinases of recombinant human cytoplasmic domain, the activities of other kinases could be also measured.

VEGFR2/KDR = target: T1, VEGFR2/KDR (Homo sapiens, UniProt P35968); assay: radiometric kinase assay, other kinases: VEGFR2/KDR; type: biochemical; settings: duplicate
T1 construct: other kinases of recombinant human cytoplasmic domain
Method: as §2

MEK1 = MEK1 (Homo sapiens, UniProt Q02750); assay: radiometric kinase assay, other kinases: MEK1; type: biochemical; settings: duplicate
Method: as §2

CDK2/cyclinA = CDK2/cyclinA (Homo sapiens, UniProt P24941); assay: radiometric kinase assay, other kinases: CDK2/cyclinA; type: biochemical; settings: duplicate
Method: as §2

PKCbetaII = PKCbetaII (Homo sapiens, UniProt P05771); assay: radiometric kinase assay, other kinases: PKCbetaII; type: biochemical; settings: duplicate
Method: as §2

MLK1/MAP3K9 = MLK1/MAP3K9 (Homo sapiens, UniProt P80192); assay: radiometric kinase assay, other kinases: MLK1/MAP3K9; type: biochemical; settings: duplicate
Method: as §2

TEC = TEC (Homo sapiens, UniProt P42680); assay: radiometric kinase assay, other kinases: TEC; type: biochemical; settings: duplicate
Method: as §2

[2] = system: Capan-1 human pancreatic cancer cells; assay: Cell Viability and Proliferation Assay, Capan-1; type: cell-based; settings: after 24 incubation
Method: as §1

c-MET = target: T2, c-MET (Homo sapiens, UniProt P08581); assay: radiometric kinase assay, other kinases: c-MET; type: biochemical; settings: duplicate
T2 construct: other kinases of recombinant human cytoplasmic domain
Method: as §2

FMS = target: T3, FMS (Homo sapiens, UniProt P07333); assay: radiometric kinase assay, other kinases: FMS; type: biochemical; settings: duplicate
T3 construct: other kinases of recombinant human cytoplasmic domain
Method: as §2

PKD2/PRKD2 = PKD2/PRKD2 (Homo sapiens, UniProt Q9BZL6); assay: radiometric kinase assay, other kinases: PKD2/PRKD2; type: biochemical; settings: duplicate
Method: as §2

PKCiota = PKCiota (Homo sapiens, UniProt P41743); assay: radiometric kinase assay, other kinases: PKCiota; type: biochemical; settings: duplicate
Method: as §2

[3] = system: CCI rats, mechanical allodynia; settings: CCI rats, 150 mg/kg oral dose
Method: Chronic Constriction Injury (CCI) Model of Neuropathic Pain in Rats. […] Chronic constriction injury of the sciatic nerve was produced by tying four loose ligatures around the left sciatic nerve according to the method of Bennett and Xie. […] Calibrated von Frey filaments were used to determine the lowest mechanical (tactile) threshold required to evoke a brisk paw withdrawal reflex in the rat hindpaws. Rats were allowed to acclimatize in wire mesh cages for 15-20 min prior to von Frey testing. Assessment of paw withdrawal thresholds (PWTs) using von Frey filaments was undertaken prior to CCI-surgery (pre-surgery baseline on day 0). Before the drug dosing on day 14, the pre-dose baseline was recorded for each rat. […] Drug-naïve CCI-rats (n=4-6 per group) were used. The oral vehicle was 0.5% CMC-Na/0.1% Tween 80 in distilled water. The positive control gabapentin was dissolved in the vehicle and orally given at 100 mg/kg (by oral gavage). Test compound was suspended in the vehicle and orally given at 50 mg/kg and 100 mg/kg.

TrkC = TrkC (Homo sapiens, UniProt Q16288); assay: radiometric kinase assay, other kinases: TrkC; type: biochemical; set-up: other kinases of recombinant human cytoplasmic domain; settings: duplicate
Method: as §2

PKCepsilon = PKCepsilon (Homo sapiens, UniProt Q02156); assay: radiometric kinase assay, other kinases: PKCepsilon; type: biochemical; settings: duplicate
Method: as §2

JAK3 = JAK3 (Homo sapiens, UniProt P52333); assay: radiometric kinase assay, other kinases: JAK3; type: biochemical; settings: duplicate
Method: as §2

LYN = LYN (Homo sapiens, UniProt P07948); assay: radiometric kinase assay, other kinases: LYN; type: biochemical; settings: duplicate
Method: as §2

FLT1 = target: T4, FLT1 (Homo sapiens, UniProt P17948); assay: radiometric kinase assay, other kinases: FLT1; type: biochemical; settings: duplicate
T4 construct: other kinases of recombinant human cytoplasmic domain
Method: as §2

c-Src = c-Src (Homo sapiens, UniProt P12931); assay: radiometric kinase assay, other kinases: c-Src; type: biochemical; settings: duplicate
Method: as §2

IR = target: T5, IR (Homo sapiens, UniProt P06213); assay: radiometric kinase assay, other kinases: IR; type: biochemical; settings: duplicate
T5 construct: other kinases of recombinant human cytoplasmic domain
Method: as §2

TGFbR2 = target: T6, TGFbR2 (Homo sapiens, UniProt P37173); assay: radiometric kinase assay, other kinases: TGFbR2; type: biochemical; settings: duplicate
T6 construct: other kinases of recombinant human cytoplasmic domain
Method: as §2

RET = target: T7, RET (Homo sapiens, UniProt P07949); assay: radiometric kinase assay, other kinases: RET; type: biochemical; settings: duplicate
T7 construct: other kinases of recombinant human cytoplasmic domain
Method: as §2

[4] = system: MIA PaCa-2 human pancreatic cancer cells; assay: Cell Viability and Proliferation Assay, MIA PaCa-2; type: cell-based; settings: after 24 incubation
Method: as §1

PDGFRb = target: T8, PDGFRb (Homo sapiens, UniProt P09619); assay: radiometric kinase assay, other kinases: PDGFRb; type: biochemical; settings: duplicate
T8 construct: other kinases of recombinant human cytoplasmic domain
Method: as §2

T8 sequence (P09619 554-1106 limits assumed): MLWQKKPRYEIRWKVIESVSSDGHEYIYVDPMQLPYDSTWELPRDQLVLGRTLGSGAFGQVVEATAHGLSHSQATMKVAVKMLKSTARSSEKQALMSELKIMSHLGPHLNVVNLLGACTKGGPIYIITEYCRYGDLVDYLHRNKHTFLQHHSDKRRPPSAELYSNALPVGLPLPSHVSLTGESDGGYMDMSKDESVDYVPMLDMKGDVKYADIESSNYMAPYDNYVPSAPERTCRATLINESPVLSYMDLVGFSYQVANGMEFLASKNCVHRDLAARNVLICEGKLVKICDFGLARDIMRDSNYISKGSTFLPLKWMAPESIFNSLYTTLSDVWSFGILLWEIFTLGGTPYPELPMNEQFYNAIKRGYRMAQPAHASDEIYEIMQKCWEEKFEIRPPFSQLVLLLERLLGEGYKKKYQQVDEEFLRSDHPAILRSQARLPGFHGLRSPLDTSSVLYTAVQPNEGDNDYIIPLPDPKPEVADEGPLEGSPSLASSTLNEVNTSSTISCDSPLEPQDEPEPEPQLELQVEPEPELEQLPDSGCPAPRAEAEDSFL
T1 sequence (P35968 786-1356 limits assumed): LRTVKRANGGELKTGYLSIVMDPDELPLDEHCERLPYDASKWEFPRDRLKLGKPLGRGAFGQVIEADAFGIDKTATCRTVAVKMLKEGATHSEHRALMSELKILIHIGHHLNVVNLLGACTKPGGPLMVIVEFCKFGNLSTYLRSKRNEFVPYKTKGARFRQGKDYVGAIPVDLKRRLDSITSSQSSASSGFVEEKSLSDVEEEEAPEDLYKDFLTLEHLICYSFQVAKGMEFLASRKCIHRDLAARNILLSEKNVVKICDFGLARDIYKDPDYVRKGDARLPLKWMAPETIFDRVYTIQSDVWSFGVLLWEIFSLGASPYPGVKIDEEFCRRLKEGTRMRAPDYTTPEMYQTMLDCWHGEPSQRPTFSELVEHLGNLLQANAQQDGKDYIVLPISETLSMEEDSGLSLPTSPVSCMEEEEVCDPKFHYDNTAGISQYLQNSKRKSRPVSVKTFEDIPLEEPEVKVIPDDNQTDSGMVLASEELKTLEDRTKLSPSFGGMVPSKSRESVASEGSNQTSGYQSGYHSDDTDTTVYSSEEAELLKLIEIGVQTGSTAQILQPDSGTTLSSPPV
T2 sequence (P08581 956-1390 limits assumed): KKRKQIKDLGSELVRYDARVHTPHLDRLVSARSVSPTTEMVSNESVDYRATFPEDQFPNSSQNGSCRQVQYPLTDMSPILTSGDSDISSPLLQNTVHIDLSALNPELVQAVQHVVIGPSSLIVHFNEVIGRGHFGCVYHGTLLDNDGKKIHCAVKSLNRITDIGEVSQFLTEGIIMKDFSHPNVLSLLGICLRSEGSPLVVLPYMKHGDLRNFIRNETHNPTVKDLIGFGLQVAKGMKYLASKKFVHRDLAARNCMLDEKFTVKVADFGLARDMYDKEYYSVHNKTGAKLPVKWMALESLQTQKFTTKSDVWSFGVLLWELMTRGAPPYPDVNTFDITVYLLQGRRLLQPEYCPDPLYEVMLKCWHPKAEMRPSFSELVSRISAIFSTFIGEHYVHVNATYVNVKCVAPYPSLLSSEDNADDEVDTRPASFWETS
T7 sequence (P07949 658-1114 limits assumed): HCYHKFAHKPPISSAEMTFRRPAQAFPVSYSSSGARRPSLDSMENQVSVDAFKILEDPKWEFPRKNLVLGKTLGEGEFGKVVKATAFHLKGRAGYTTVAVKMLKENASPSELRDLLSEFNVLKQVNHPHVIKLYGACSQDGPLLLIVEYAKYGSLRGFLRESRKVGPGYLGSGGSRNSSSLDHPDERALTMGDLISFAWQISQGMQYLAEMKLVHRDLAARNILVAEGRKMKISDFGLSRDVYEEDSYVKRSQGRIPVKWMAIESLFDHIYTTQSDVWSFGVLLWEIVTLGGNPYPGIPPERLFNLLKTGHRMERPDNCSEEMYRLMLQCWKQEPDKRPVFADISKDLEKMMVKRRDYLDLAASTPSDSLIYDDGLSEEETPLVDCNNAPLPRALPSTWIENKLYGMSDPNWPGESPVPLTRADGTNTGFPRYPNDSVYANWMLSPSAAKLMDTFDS
Chain of PKCepsilon (Q02156 whole entry): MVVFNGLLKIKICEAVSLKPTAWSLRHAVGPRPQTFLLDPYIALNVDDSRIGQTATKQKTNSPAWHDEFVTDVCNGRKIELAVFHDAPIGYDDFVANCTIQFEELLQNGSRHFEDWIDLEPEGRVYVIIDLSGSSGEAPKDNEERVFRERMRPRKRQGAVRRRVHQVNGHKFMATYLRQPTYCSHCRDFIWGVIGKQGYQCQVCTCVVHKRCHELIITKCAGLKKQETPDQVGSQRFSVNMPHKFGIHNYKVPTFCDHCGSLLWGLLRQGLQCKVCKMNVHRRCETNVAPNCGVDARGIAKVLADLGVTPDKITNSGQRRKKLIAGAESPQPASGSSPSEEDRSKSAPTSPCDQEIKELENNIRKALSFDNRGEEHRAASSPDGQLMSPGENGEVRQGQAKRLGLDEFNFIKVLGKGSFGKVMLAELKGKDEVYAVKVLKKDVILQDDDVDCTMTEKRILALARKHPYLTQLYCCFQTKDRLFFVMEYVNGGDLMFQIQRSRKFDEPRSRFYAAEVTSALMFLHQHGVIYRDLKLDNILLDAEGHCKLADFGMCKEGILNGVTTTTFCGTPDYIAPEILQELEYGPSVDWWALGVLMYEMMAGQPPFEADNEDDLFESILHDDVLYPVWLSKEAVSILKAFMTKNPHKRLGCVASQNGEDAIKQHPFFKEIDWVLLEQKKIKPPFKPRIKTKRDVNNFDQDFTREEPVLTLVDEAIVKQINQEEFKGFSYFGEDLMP
Chain of TrkC (Q16288 454-839 limits assumed): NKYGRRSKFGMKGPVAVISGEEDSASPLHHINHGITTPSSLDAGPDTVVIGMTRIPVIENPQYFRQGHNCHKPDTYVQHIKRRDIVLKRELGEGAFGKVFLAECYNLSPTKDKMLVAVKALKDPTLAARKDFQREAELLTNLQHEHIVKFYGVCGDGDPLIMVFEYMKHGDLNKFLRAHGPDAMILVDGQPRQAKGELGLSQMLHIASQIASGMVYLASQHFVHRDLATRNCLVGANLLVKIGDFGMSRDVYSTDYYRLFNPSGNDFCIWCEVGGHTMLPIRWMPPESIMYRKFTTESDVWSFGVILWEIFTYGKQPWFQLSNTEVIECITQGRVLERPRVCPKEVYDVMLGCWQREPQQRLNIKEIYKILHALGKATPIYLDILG
Chain of PKD2/PRKD2 (Q9BZL6 whole entry): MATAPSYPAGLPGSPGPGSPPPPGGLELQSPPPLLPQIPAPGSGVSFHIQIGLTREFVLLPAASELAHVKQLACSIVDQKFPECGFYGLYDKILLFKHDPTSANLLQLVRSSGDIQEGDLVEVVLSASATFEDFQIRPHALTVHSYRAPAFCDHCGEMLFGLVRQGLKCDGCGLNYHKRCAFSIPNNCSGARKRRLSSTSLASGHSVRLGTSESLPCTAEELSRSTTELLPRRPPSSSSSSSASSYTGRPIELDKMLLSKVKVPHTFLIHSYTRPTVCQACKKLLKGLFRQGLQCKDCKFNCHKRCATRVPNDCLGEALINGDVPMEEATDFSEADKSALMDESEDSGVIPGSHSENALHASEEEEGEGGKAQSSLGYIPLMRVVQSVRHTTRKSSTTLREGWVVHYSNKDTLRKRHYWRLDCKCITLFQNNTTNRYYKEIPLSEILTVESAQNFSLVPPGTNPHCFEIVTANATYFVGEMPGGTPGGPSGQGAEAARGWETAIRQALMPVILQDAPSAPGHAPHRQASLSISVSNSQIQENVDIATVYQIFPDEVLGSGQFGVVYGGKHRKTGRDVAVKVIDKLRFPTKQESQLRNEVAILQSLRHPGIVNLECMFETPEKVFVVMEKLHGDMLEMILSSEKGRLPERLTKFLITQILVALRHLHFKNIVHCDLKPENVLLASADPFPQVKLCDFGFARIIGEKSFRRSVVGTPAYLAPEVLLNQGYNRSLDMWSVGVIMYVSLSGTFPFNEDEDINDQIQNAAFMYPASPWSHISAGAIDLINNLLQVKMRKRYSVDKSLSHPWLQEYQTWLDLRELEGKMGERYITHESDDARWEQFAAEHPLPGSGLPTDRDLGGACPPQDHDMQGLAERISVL
T6 sequence (P37173 188-567 limits assumed): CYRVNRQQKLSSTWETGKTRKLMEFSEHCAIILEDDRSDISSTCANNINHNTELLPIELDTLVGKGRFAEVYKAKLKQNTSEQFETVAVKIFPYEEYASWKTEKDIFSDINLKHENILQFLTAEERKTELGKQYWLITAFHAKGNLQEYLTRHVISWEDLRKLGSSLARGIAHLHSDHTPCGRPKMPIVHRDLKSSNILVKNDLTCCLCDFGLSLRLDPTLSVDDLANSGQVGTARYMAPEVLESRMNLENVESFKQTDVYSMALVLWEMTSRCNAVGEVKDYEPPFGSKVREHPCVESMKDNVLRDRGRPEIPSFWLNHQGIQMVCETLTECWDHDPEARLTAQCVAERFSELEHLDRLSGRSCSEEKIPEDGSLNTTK
Chain of LYN (P07948 whole entry): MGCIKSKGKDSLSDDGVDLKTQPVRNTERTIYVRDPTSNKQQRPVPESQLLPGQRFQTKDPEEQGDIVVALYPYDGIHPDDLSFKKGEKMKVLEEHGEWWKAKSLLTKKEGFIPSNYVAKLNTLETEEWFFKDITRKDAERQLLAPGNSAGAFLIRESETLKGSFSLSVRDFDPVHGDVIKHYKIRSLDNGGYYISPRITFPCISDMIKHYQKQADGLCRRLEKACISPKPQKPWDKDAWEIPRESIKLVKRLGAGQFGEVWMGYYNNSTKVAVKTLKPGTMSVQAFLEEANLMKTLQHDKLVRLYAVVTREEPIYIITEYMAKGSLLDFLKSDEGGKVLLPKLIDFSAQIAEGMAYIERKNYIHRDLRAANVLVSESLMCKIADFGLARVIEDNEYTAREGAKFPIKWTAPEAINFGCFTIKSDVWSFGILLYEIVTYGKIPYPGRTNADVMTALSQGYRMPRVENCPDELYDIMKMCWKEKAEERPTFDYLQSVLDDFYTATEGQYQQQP

Compound: Nc1c(N2CCN(C3CCCCC3)CC2)cc(Nc2ccc(C(=O)O)cc2)c2c1C(=O)c1ccccc1C2=O [Compound 12, 4-{[4-amino-3-(4-cyclohexylpiperazin-1-yl)-9,10-dioxo-9,10-dihydroanthracen-1-yl]amino}benzoic acid]
- IC50 [1]: 2 to 5 µM
- IC50 (P38b/MAPK11): > 10 µM
- IC50 (VEGFR2/KDR): > 10 µM
- IC50 (MEK1): > 10 µM
- IC50 (CDK2/cyclinA): > 10 µM
- IC50 (PKCbetaII): > 10 µM
- IC50 (MLK1/MAP3K9): > 10 µM
- IC50 (TEC): > 10 µM
- IC50 [2]: 2 to 5 µM
- IC50 (c-MET): > 10 µM
- IC50 (FMS): > 10 µM
- IC50 (PKD2/PRKD2): > 10 µM
- IC50 (PKCiota): > 10 µM
- relative analgesic effect compared to morphine (HCl) at 3 mg/kg, s.c. [3]: about 48%
- IC50 (TrkC): > 10 µM
- IC50 (PKCepsilon): > 10 µM
- IC50 (JAK3): > 10 µM
- IC50 (LYN): > 10 µM
- IC50 (FLT1): > 10 µM
- IC50 (c-Src): > 10 µM
- IC50 (IR): > 10 µM
- IC50 (TGFbR2): > 10 µM
- IC50 (RET): > 10 µM
- IC50 [4]: 2 to 5 µM
- IC50 (PDGFRb): > 10 µM
